Laboratory results from US20240027453A1, “METHOD FOR DETECTION AND QUANTITATIVE MONITORING OF INFECTIONS WITH HERPESVIRUSES” (The Trustees of Princeton University, priority 2020, published 2024).
Like-named read-outs stand apart in the source and are kept apart here.

Test system: HCMV
Type: cell-based
Description: In example herpesvirus PRM assay methods shown herein, cell pellets were lysed in 2% SDS, 100 mM NaCl, 0.5 mM EDTA, 50 mM Tris, pH 8.2, and 50 μg of protein was reduced and alkylated with 25 mM TCEP and 50 mM CAM respectively for 20 min at 70° C. Proteins were then precipitated via methanol chloroform precipitation (Wessel & Flugg, Anal Biochem. 138(1):141-143, 1984), resuspended in 50 mM HEPES, pH 8.2 and digested overnight with trypsin (50:1 protein:enzyme w/w ratio). Digested peptides were desalted by SDB-RPS StageTip as previously described (Lum et al., Cell Syst., 7(6):[…], 2018; Greco et al., Methods Mol Biol 1410:39-63, 2016; Federspiel & Cristea, Methods Mol Biol., 1977:115-143, 2019).
Peptides (1.0 μg on column) were analyzed by LC-MS/MS using a Dionex Ultimate 3000 UHPLC coupled online to an EASYSpray ion source and a Q Exactive HF. Peptides were separated on an EASYSpray C18 column (75 μm×25 cm) heated to 50° C. using a linear gradient of 5% B to 32% B over 60 min at a flow rate of 250 nL/min and were ionized at 1.7 kv. Mobile phase A consisted of 0.1% FA in H2O and mobile phase B consisted of 0.1% FA, 2.9% H2O in ACN.
The PRM method was controlled by a peptide inclusion list with retention time windows of 6 min for selected precursor ions.
The PRM assay was developed and analyzed using the open-source software Skyline (Maclean et al., Bioinformatics 26(7):966-968, 2010). Summed area under the curve of 3-4 transitions per peptide was used for quantitation. Targeted peptides were normalized to host protein loading control peptides. Peptide values for each sample were scaled to the average of each peptide across all runs. The average of multiple peptides was used as the inferred value for the protein measurement when more than one peptide was quantified (Federspiel et al., PLoS Biol. 17(9):e3000437. Doi: 10.1371/journal.pbio.3000437). PRM quantitation data were graphed using the Python Seaborn and Matplotlib libraries.
MRC5 primary human fibroblasts (HFs) (ATCC CCL-171) were used as the model system for HSV-1 and HCMV infections and were cultured in complete growth medium (DMEM supplemented with 10% fetal bovine serum and 1% penicillin-streptomycin antibiotics) at 37° C. and 5% CO2. iSLK.219 cells harboring latent KSHV (a gift from Dr. Britt Glaunsinger, University of California, Berkeley) were grown in complete growth medium supplemented with 500 μg/ml hygromycin (ThermoFisher Scientific, 10687010) at 37° C. and 5% CO2. All cells were used for experiments within a maximum of 10 passages.
Wild type HSV-1 strain 17+ (a gift from Beate Sodeik, Hannover Medical School, Hannover, Germany) was propagated as previously described (Diner et al., 2015). Briefly, PO stocks were generated by electroporating pBAC-HSV-1 into U-2 OS cells. […] In a similar manner, wild type HCMV strain AD169 was produced from BAC electroporation into HFs and working stocks were propagated by infecting HFs at a low level. In both cases, cell-associated virus was released by sonication, combined with supernatant virus, then concentrated by ultracentrifugation (20,000 rpm, 2 hours, 4° C. with SW28 swinging bucket rotor [Beckman Coulter]) over a 10% ficoll (HSV-1) or 20% sorbitol (HCMV) cushion. Virus stock titers were determined by plaque assay for HSV-1 or tissue culture infectious dose (TCID50) for HCMV and infections were performed at a multiplicity of infection (MOI) of 3.
12 hours prior to virus infection or reactivation, cells were treated with either the small molecule drug or DMSO/PBS control at an equivalent volume. […] For infection cycles lasting longer than 24 hours, small molecule drugs were re-added to the cell culture medium every 24 hours. Upon collection, cells were rinsed with PBS, scraped into a microcentrifuge tube, pelleted by centrifugation, and rinsed again with PBS.

**Q.** With `Nc1ccn(C[C@@H](CO)OCP(=O)(O)O)c(=O)n1` [CDV, cidofovir] as the compound, how does the “UL80 (P16753) protein, numerical value of heatmap FIG. 6C” value (L, timepoint 96) read?
**A.** The value was 1.017.

**Q.** And the “UL82 (P06726) protein, numerical value of heatmap FIG. 6C” value (L, timepoint 96)?
**A.** Its value is 0.9932.

**Q.** What about the “UL87 (P16730) protein, numerical value of heatmap FIG. 6C” value (L, timepoint 96) of the same compound?
**A.** The value was 0.3187.

**Q.** And the “UL88 (P16731) protein, numerical value of heatmap FIG. 6C” value (L, timepoint 96)?
**A.** The value was 0.6827.

**Q.** And the “UL94 (P16800) protein, numerical value of heatmap FIG. 6C” value (L, timepoint 96)?
**A.** The value was 0.8521.

**Q.** What about the “UL99 (P13200) protein, numerical value of heatmap FIG. 6C” value (L, timepoint 96) of the same compound?
**A.** Its value is 0.9111.

**Q.** What about the “UL103 (P16734) protein, numerical value of heatmap FIG. 6C” value (L, timepoint 96) of the same compound?
**A.** Its value is 0.899.

**Q.** And the “UL117 (P16770) protein, numerical value of heatmap FIG. 6C” value (L, timepoint 96)?
**A.** The value was 0.5858.

**Q.** And the “gH (P12824) protein, numerical value of heatmap FIG. 6C” value (L, timepoint 96)?
**A.** The value was 1.268.

**Q.** And the “gL (P16832) protein, numerical value of heatmap FIG. 6C” value (L, timepoint 96)?
**A.** Its value is 0.676.

**Q.** And the “gM (P16733) protein, numerical value of heatmap FIG. 6C” value (L, timepoint 96)?
**A.** Its value is 0.9966.

**Q.** And the “gN (P16795) protein, numerical value of heatmap FIG. 6C” value (L, timepoint 96)?
**A.** Its value is 0.6947.

**Q.** And the “sp|P16809|IR11_HCMVA (P16809) protein, numerical value of heatmap FIG. 6C” value (L, timepoint 96)?
**A.** The value was 0.6961.

**Q.** And the “CVC1 (P16799) protein, numerical value of heatmap FIG. 6C” value (L, timepoint 120)?
**A.** The value was 0.8775.

**Q.** And the “GO (P16750) protein, numerical value of heatmap FIG. 6C” value (L, timepoint 120)?
**A.** The value was 0.821.

**Q.** What about the “MCP (P16729) protein, numerical value of heatmap FIG. 6C” value (L, timepoint 120) of the same compound?
**A.** The value was 1.664.

**Q.** And the “SCP (Q7M6N6) protein, numerical value of heatmap FIG. 6C” value (L, timepoint 120)?
**A.** Its value is 1.225.

**Q.** What about the “TRM2 (P16792) protein, numerical value of heatmap FIG. 6C” value (L, timepoint 120) of the same compound?
**A.** Its value is 1.244.

**Q.** What about the “UL22A (P16845) protein, numerical value of heatmap FIG. 6C” value (L, timepoint 120) of the same compound?
**A.** Its value is 1.64.

**Q.** What about the “UL25 (P16761) protein, numerical value of heatmap FIG. 6C” value (L, timepoint 120) of the same compound?
**A.** Its value is 1.445.

**Q.** And the “UL29 (P16764) protein, numerical value of heatmap FIG. 6C” value (L, timepoint 120)?
**A.** The value was 1.329.

**Q.** And the “UL30 (P16765) protein, numerical value of heatmap FIG. 6C” value (L, timepoint 120)?
**A.** The value was 0.9125.

**Q.** And the “UL31 (P16848) protein, numerical value of heatmap FIG. 6C” value (L, timepoint 120)?
**A.** The value was 1.094.

**Q.** And the “UL43 (P16781) protein, numerical value of heatmap FIG. 6C” value (L, timepoint 120)?
**A.** The value was 1.1093.

**Q.** What about the “UL52 (P16793) protein, numerical value of heatmap FIG. 6C” value (L, timepoint 120) of the same compound?
**A.** The value was 1.493.

**Q.** What about the “UL76 (P16725) protein, numerical value of heatmap FIG. 6C” value (L, timepoint 120) of the same compound?
**A.** The value was 0.7396.

**Q.** What about the “UL79 (P16752) protein, numerical value of heatmap FIG. 6C” value (L, timepoint 120) of the same compound?
**A.** Its value is 0.8598.

**Q.** And the “UL80 (P16753) protein, numerical value of heatmap FIG. 6C” value (L, timepoint 120)?
**A.** The value was 1.249.

**Q.** What about the “UL82 (P06726) protein, numerical value of heatmap FIG. 6C” value (L, timepoint 120) of the same compound?
**A.** Its value is 1.469.

**Q.** What about the “UL87 (P16730) protein, numerical value of heatmap FIG. 6C” value (L, timepoint 120) of the same compound?
**A.** The value was 0.5716.

**Q.** What about the “UL88 (P16731) protein, numerical value of heatmap FIG. 6C” value (L, timepoint 120) of the same compound?
**A.** Its value is 0.8088.

**Q.** What about the “UL94 (P16800) protein, numerical value of heatmap FIG. 6C” value (L, timepoint 120) of the same compound?
**A.** The value was 1.266.

**Q.** What about the “UL99 (P13200) protein, numerical value of heatmap FIG. 6C” value (L, timepoint 120) of the same compound?
**A.** The value was 1.628.

**Q.** And the “UL103 (P16734) protein, numerical value of heatmap FIG. 6C” value (L, timepoint 120)?
**A.** The value was 1.157.

**Q.** And the “UL117 (P16770) protein, numerical value of heatmap FIG. 6C” value (L, timepoint 120)?
**A.** Its value is 0.837.

**Q.** And the “gH (P12824) protein, numerical value of heatmap FIG. 6C” value (L, timepoint 120)?
**A.** The value was 1.57.

**Q.** What about the “gL (P16832) protein, numerical value of heatmap FIG. 6C” value (L, timepoint 120) of the same compound?
**A.** Its value is 1.175.

**Q.** What about the “gM (P16733) protein, numerical value of heatmap FIG. 6C” value (L, timepoint 120) of the same compound?
**A.** The value was 1.476.

**Q.** And the “gN (P16795) protein, numerical value of heatmap FIG. 6C” value (L, timepoint 120)?
**A.** Its value is 1.396.

**Q.** What about the “sp|P16809|IR11_HCMVA (P16809) protein, numerical value of heatmap FIG. 6C” value (L, timepoint 120) of the same compound?
**A.** The value was 0.7634.

**Q.** And the “TRX2 (P16728) protein, numerical value of heatmap FIG. 6C” value (LL, timepoint 24)?
**A.** The value was 0.008754.

**Q.** And the “UL69 (P16749) protein, numerical value of heatmap FIG. 6C” value (LL, timepoint 24)?
**A.** Its value is 0.1676.

**Q.** And the “UL70 (P17149) protein, numerical value of heatmap FIG. 6C” value (LL, timepoint 24)?
**A.** The value was 0.06824.

**Q.** And the “UL83 (P06725) protein, numerical value of heatmap FIG. 6C” value (LL, timepoint 24)?
**A.** Its value is 0.03389.

**Q.** What about the “UL132 (P69338) protein, numerical value of heatmap FIG. 6C” value (LL, timepoint 24) of the same compound?
**A.** Its value is 0.04048.

**Q.** What about the “US15 (P09718) protein, numerical value of heatmap FIG. 6C” value (LL, timepoint 24) of the same compound?
**A.** Its value is 0.5879.

**Q.** And the “DUT (P16824) protein, numerical value of heatmap FIG. 6C” value (LL, timepoint 48)?
**A.** The value was 0.2905.

**Q.** And the “TRX1 (P16783) protein, numerical value of heatmap FIG. 6C” value (LL, timepoint 48)?
**A.** The value was 0.01277.

**Q.** And the “TRX2 (P16728) protein, numerical value of heatmap FIG. 6C” value (LL, timepoint 48)?
**A.** Its value is 0.01952.

**Q.** What about the “UL24 (P16760) protein, numerical value of heatmap FIG. 6C” value (LL, timepoint 48) of the same compound?
**A.** The value was 0.107.

**Q.** And the “UL40 (P16780) protein, numerical value of heatmap FIG. 6C” value (LL, timepoint 48)?
**A.** The value was 0.3905.
